These results are taken from ChEMBL document CHEMBL1122562, “Synthesis of 3-hydroxy-2- and -4-pyridone nucleosides as potential antitumor agents” (1984).

SMILES strings stand for the structures. Activity calls are given as the source filed them. The calls are words filed in the database; no cut-off is given here.

Assay [1] concerns P388. In words: Compound was tested in vitro for its inhibitory activity against murine P-388 leukemia. Format: functional. Particulars: Mus musculus, read-out: ID50 (the source's name).
In assay [2] the test system is P388. In words: Compound was tested in vitro for its inhibitory activity against murine P-388 leukemia at doses ranging from 25 to 400 mg/kg qd 1-5; minimally active T/Cvalues of 125 in this tumor system. The class given is functional, organism-based. The note with it: Mus musculus.
The subject of assay [3] is P388. The assay is described as follows: Compound was tested in vitro for its inhibitory activity against murine P-388 leukemia at doses ranging from 25 to 400 mg/kg qd 1-5 minimally active T/Cvalues of 125 in this tumor system. Format: functional, organism-based. Particulars: Mus musculus.

With `Cc1nccc(O)c1O`, the IC50 in assay [1] stood at 110 µM. `Cc1c(O)c(O)cc[n+]1C1O[C@H](CO)[C@@H](O)[C@@H]1O` (stereo partly drawn): in assay [2], the ID50 entry is “inactive”.

Take `O=c1c(O)cccn1[C@@H]1O[C@H](CO)[C@@H](O)[C@@H]1O`: the ID50 entry in assay [3] is “inactive”.

Turning to `Oc1cccnc1O`, the IC50 in assay [1] was 300 µM. Still for that read-out and setting: the same measure for `O=c1c(O)cccn1[C@@H]1O[C@H](CO)[C@@H](O)[C@H]1O`: 450 µM; for `Cc1c(O)c(=O)ccn1C1O[C@H](CO)[C@@H](O)[C@H]1O` (stereo partly drawn): 60 µM. For the molecule `COc1c(C)n(C2O[C@H](CO)[C@@H](O)[C@H]2O)ccc1=O` (stereo partly drawn), in assay [2], the ID50 entry was “inactive”. As for `CC(=O)OC[C@H]1O[C@@H](n2cccc(OC(C)=O)c2=O)[C@H](OC(C)=O)[C@@H]1OC(C)=O`, in assay [2], the ID50 entry is “inactive”.
